Measured values reported in article PMC8222254, “Self-assembly of an anion receptor with metal-dependent kinase inhibition and potent in vitro anti-cancer properties” (Nature Communications, 2021).
“And” between values parts separate entries of the source, which are not always exact repeats. Equal values may be shown once. Read-outs that look alike come from different tables or passages of the source.

Tests used:
Assay in all cases: Chemosensitivity, 96 h continuous exposure, MTT assay;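 for SI (NPI): adult human brain neural progenitor non-cancer cells from an epilepsy surgery patient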;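 for Selectivity Index using the NPI non-cancer cell line: adult human brain neural progenitor non-cancer cells from an epilepsy surgery patient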
Assay type in all cases: cell-based, human
HCT116 p53+/+ = test system: HCT116 p53+/+;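 for SI (NPI): adult human brain neural progenitor non-cancer cells from an epilepsy surgery patient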;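 for Selectivity Index using the NPI non-cancer cell line: adult human brain neural progenitor non-cancer cells from an epilepsy surgery patient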
How it was run: (§1)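 IC50 is the concentration giving 50% growth reduction, derived from dose-response curves of MTT absorbance at 540 nm. Before dosing, lines were plated at 2 × 10^3 cells/well, GBM1 stem-like cells at 3 × 10^3/well, overnight at 37 °C; compound exposure lasted 96 h without interruption, vehicle 0.2% DMSO.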

MCF10A non-cancer cells = test system: MCF10A non-cancer cells
How it was run: as §1

ARPE-19 non-cancer cells = test system: ARPE-19 non-cancer cells
How it was run: as §1

H460 = test system: H460
How it was run: as §1

HCT116 p53-/- = test system: HCT116 p53-/-
How it was run: as §1

HT-29 = test system: HT-29
How it was run: as §1

A549 = test system: A549
How it was run: as §1

[Cu+2].[Cu+2].[Cu+2].c1ccc(-c2csc(NCCN(CCNc3nc(-c4ccccn4)cs3)CCNc3nc(-c4ccccn4)cs3)n2)nc1.c1ccc(-c2csc(NCCN(CCNc3nc(-c4ccccn4)cs3)CCNc3nc(-c4ccccn4)cs3)n2)nc1 [[L2Cu3]6+]
IC50 (HCT116 p53+/+; HCT116 p53+/+, 96 h, MTT, individual run, read-out: IC50 values for each replicate): 240 nM and 533 nM and 528 nM and 499 nM and 677 nM
IC50 (HCT116 p53+/+; HCT116 p53+/+, 96 h, MTT, mean of at least 3 independent experiments, read-out: Mean IC50): 496 nM
IC50 (HCT116 p53+/+; HCT116 p53+/+, mean of replicates, read-out: Mean IC50): 496 nM
IC50 (HCT116 p53+/+; HCT116 p53+/+, read-out: Mean IC50 values): 496 nM
Selectivity index (ARPE19) (HCT116 p53+/+; IC50 ARPE-19 / IC50 HCT116 p53+/+): 106.11 and 106.2
Selectivity index (MCF10A) (HCT116 p53+/+; IC50 MCF10A / IC50 HCT116 p53+/+): 97.30
Selectivity Index using the NPI non-cancer cell line (HCT116 p53+/+; IC50 NP1 / IC50 HCT116 p53+/+): 86.88
SI (ARPE19) (HCT116 p53+/+; mean IC50 ARPE-19 / mean IC50 HCT116 p53+/+): 106.11
SI (MCF10A) (HCT116 p53+/+; mean IC50 MCF10A / mean IC50 HCT116 p53+/+): 97.30
SI (NPI) (HCT116 p53+/+; mean IC50 NP1 / mean IC50 HCT116 p53+/+): 86.88
Relative potency (+ anion to no anion), Ratio + anion:no anion (HCT116 p53+/+; ratio of IC50, HCT116 p53+/+): 1
Selectivity indices relative to ARPE-19, Ratio + anion:no anion (HCT116 p53+/+; ratio of SI (ARPE-19), HCT116 p53+/+): 1
Selectivity indices relative to MCF10A, Ratio + anion:no anion (HCT116 p53+/+; ratio of SI (MCF 10A), HCT116 p53+/+): 1
IC50 (MCF10A non-cancer cells; MCF10A non-cancer, read-out: Mean IC50 values): 48300 nM
IC50 (MCF10A non-cancer cells; MCF10A, 96 h, MTT, individual run, read-out: IC50 values for each replicate): 51900 nM and 58100 nM and 39000 nM and 43800 nM and 48500 nM
IC50 (MCF10A non-cancer cells; MCF10A, 96 h, MTT, mean of at least 3 independent experiments, read-out: Mean IC50): 48300 nM
IC50 (MCF10A non-cancer cells; MCF10A, mean of replicates, read-out: Mean IC50): 48300 nM
Relative potency (+ anion to no anion), Ratio + anion:no anion (MCF10A non-cancer cells; ratio of IC50, MCF10A): 1
IC50 (ARPE-19 non-cancer cells; ARPE-19, 96 h, MTT, individual run, read-out: IC50 values for each replicate): 49100 nM and 43800 nM and 57700 nM and 66200 nM and 46400 nM
IC50 (ARPE-19 non-cancer cells; ARPE-19, 96 h, MTT, mean of at least 3 independent experiments, read-out: Mean IC50): 52600 nM
IC50 (ARPE-19 non-cancer cells; ARPE-19, mean of replicates, read-out: Mean IC50): 52600 nM
IC50 (ARPE-19 non-cancer cells; ARPE-19 non-cancer, read-out: Mean IC50 values): 52600 nM
Relative potency (+ anion to no anion), Ratio + anion:no anion (ARPE-19 non-cancer cells; ratio of IC50, ARPE-19): 1
IC50 (H460; H460, 96 h, MTT, individual run, read-out: IC50 values for each replicate): 257 nM and 234 nM and 451 nM and 164 nM
IC50 (H460; H460, 96 h, MTT, mean of at least 3 independent experiments, read-out: Mean IC50): 276 nM
IC50 (H460; H460, mean of replicates, read-out: Mean IC50): 276 nM
IC50 (H460; H460, read-out: Mean IC50 values): 276 nM
Selectivity index (ARPE19) (H460; IC50 ARPE-19 / IC50 H460): 190.69
Selectivity index (MCF10A) (H460; IC50 MCF10A / IC50 H460): 174.86
Selectivity Index using the NPI non-cancer cell line (H460; IC50 NP1 / IC50 H460): 156.12
SI (ARPE19) (H460; mean IC50 ARPE-19 / mean IC50 H460): 190.69
SI (MCF10A) (H460; mean IC50 MCF10A / mean IC50 H460): 174.86
SI (NPI) (H460; mean IC50 NP1 / mean IC50 H460): 156.12
Relative potency (+ anion to no anion), Ratio + anion:no anion (H460; ratio of IC50, H460): 1
Selectivity indices relative to ARPE-19, Ratio + anion:no anion (H460; ratio of SI (ARPE-19), H460): 1
Selectivity indices relative to MCF10A, Ratio + anion:no anion (H460; ratio of SI (MCF 10A), H460): 1
IC50 (HCT116 p53-/-; HCT116 p53-/-, 96 h, MTT, individual run, read-out: IC50 values for each replicate): 238 nM and 90 nM and 189 nM and 87 nM and 67 nM and 155 nM
IC50 (HCT116 p53-/-; HCT116 p53-/-, 96 h, MTT, mean of at least 3 independent experiments, read-out: Mean IC50): 137 nM
IC50 (HCT116 p53-/-; HCT116 p53-/-, mean of replicates, read-out: Mean IC50): 137 nM
IC50 (HCT116 p53-/-; HCT116 p53-/-, read-out: Mean IC50 values): 137 nM
Selectivity index (ARPE19) (HCT116 p53-/-; IC50 ARPE-19 / IC50 HCT116 p53-/-): 384.16 and 384.82
Selectivity index (MCF10A) (HCT116 p53-/-; IC50 MCF10A / IC50 HCT116 p53-/-): 352.26
Selectivity Index using the NPI non-cancer cell line (HCT116 p53-/-; IC50 NP1 / IC50 HCT116 p53-/-): 314.53
SI (ARPE19) (HCT116 p53-/-; mean IC50 ARPE-19 / mean IC50 HCT116 p53-/-): 384.16
SI (MCF10A) (HCT116 p53-/-; mean IC50 MCF10A / mean IC50 HCT116 p53-/-): 352.26
SI (NPI) (HCT116 p53-/-; mean IC50 NP1 / mean IC50 HCT116 p53-/-): 314.53
Relative potency (+ anion to no anion), Ratio + anion:no anion (HCT116 p53-/-; ratio of IC50, HCT116 p53-/-): 1
Selectivity indices relative to ARPE-19, Ratio + anion:no anion (HCT116 p53-/-; ratio of SI (ARPE-19), HCT116 p53-/-): 1
Selectivity indices relative to MCF10A, Ratio + anion:no anion (HCT116 p53-/-; ratio of SI (MCF 10A), HCT116 p53-/-): 1
IC50 (HT-29; HT29, mean of replicates, read-out: Mean IC50): 213 nM
IC50 (HT-29; HT29, read-out: Mean IC50 values): 214 nM
IC50 (HT-29; HT-29, 96 h, MTT, individual run, read-out: IC50 values for each replicate): 184 nM and 210 nM and 273 nM and 226 nM and 174 nM
IC50 (HT-29; HT-29, 96 h, MTT, mean of at least 3 independent experiments, read-out: Mean IC50): 214 nM
Selectivity index (ARPE19) (HT-29; IC50 ARPE-19 / IC50 HT29): 245.93
Selectivity index (MCF10A) (HT-29; IC50 MCF10A / IC50 HT29): 225.51
Selectivity Index using the NPI non-cancer cell line (HT-29; IC50 NP1 / IC50 HT29): 201.36
SI (ARPE19) (HT-29; mean IC50 ARPE-19 / mean IC50 HT-29): 245.93
SI (MCF10A) (HT-29; mean IC50 MCF10A / mean IC50 HT-29): 225.51
SI (NPI) (HT-29; mean IC50 NP1 / mean IC50 HT-29): 201.36
Relative potency (+ anion to no anion), Ratio + anion:no anion (HT-29; ratio of IC50, HT29): 1
Selectivity indices relative to ARPE-19, Ratio + anion:no anion (HT-29; ratio of SI (ARPE-19), HT29): 1
Selectivity indices relative to MCF10A, Ratio + anion:no anion (HT-29; ratio of SI (MCF 10A), HT29): 1
IC50 (A549; A549, 96 h, MTT, individual run, read-out: IC50 values for each replicate): 256 nM and 189 nM and 254 nM
IC50 (A549; A549, 96 h, MTT, mean of at least 3 independent experiments, read-out: Mean IC50): 233 nM
IC50 (A549; A549, mean of replicates, read-out: Mean IC50): 233 nM
IC50 (A549; A549, read-out: Mean IC50 values): 233 nM
Selectivity index (ARPE19) (A549; IC50 ARPE-19 / IC50 A549): 225.88
Selectivity index (MCF10A) (A549; IC50 MCF10A / IC50 A549): 207.12
Selectivity Index using the NPI non-cancer cell line (A549; IC50 NP1 / IC50 A549): 184.94
SI (ARPE19) (A549; mean IC50 ARPE-19 / mean IC50 A549): 225.88
SI (MCF10A) (A549; mean IC50 MCF10A / mean IC50 A549): 207.12
SI (NPI) (A549; mean IC50 NP1 / mean IC50 A549): 184.94
Relative potency (+ anion to no anion), Ratio + anion:no anion (A549; ratio of IC50, A549): 1
Selectivity indices relative to ARPE-19, Ratio + anion:no anion (A549; ratio of SI (ARPE-19), A549): 1
Selectivity indices relative to MCF10A, Ratio + anion:no anion (A549; ratio of SI (MCF 10A), A549): 1
